Results: US11795171B2, “Pyrrolotriazinones and imidazotriazinones as ubiquitin-specific protease 7 inhibitors” (Valo Health, Inc., priority 2014, dated 2023)

Biological target: USP7 (Homo sapiens (Human), UniProt Q93009)
Experiment: USP7 Assay B (Ubitquin-Rhodamine110 Assay)
Format: biochemical
Conditions: Ub-Rh110 substrate 25 nM

Sequence of USP7 (Q93009 208-1102): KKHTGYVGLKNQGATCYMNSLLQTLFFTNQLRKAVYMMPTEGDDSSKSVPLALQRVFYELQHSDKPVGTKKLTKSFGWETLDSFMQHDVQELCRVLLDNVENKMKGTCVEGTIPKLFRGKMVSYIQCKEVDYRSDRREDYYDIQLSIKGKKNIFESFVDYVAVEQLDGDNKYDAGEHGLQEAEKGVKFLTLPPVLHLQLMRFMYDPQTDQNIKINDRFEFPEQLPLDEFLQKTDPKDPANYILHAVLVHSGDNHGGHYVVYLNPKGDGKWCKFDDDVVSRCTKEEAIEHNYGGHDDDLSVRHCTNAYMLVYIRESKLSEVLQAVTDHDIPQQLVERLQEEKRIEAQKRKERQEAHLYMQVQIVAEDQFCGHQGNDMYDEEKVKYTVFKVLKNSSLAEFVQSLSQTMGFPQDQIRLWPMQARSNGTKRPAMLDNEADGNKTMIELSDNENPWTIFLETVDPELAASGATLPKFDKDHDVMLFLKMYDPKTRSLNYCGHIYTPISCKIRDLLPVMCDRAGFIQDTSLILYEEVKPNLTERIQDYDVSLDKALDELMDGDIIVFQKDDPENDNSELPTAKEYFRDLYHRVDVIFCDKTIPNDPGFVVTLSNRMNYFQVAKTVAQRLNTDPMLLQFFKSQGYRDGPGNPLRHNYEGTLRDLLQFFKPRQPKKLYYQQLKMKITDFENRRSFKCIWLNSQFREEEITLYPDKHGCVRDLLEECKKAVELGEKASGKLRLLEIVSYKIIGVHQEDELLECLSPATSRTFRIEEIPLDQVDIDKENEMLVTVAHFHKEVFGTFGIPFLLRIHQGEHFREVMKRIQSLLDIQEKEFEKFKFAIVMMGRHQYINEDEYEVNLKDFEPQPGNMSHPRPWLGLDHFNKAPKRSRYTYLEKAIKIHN

With `N#CC(Cc1ccccc1)C(=O)N1CCC(O)(Cn2cnn3cccc3c2=O)CC1` (centres unmarked) [Compound I-54, 2-benzyl-3-(4-hydroxy-4-((4-oxopyrrolo[2,1-f][1,2,4]triazin-3(4H)-yl)methyl)piperidin-1-yl)-3-oxopropanenitrile] the IC50 was > 10 µM.

Compound `O=C(c1cccc(-c2ccc3ncccc3c2)c1)N1CCC(O)(Cn2cnn3cccc3c2=O)CC1` [Compound I-21, 3-((4-hydroxy-1-(3-(quinolin-6-yl)benzoyl)piperidin-4-yl)methyl)pyrrolo[2,1-f][1,2,4]triazin-4(3H)-one] has an IC50 of 1 to 10 µM.

With `Cc1cccc(NC(=O)Nc2cc3c(=O)n(CC4(O)CCN(C(=O)C5CC5)CC4)cnn3c2)c1C` [Compound I-98, 1-(3-((1-(cyclopropanecarbonyl)-4-hydroxypiperidin-4-yl)methyl)-4-oxo-3,4-dihydropyrrolo[2,1-f][1,2,4]triazin-6-yl)-3-(2,3-dimethylphenyl)urea] the IC50 was > 10 µM.

With `O=C(c1ccc(-c2ccc(C(=O)N3CCC(O)(Cn4cnn5cccc5c4=O)CC3)cc2)cc1)N1CCCCC1` [Compound I-52, 3-((4-hydroxy-1-(4′-(piperidine-1-carbonyl)-[1,1′-biphenyl]-4-carbonyl)piperidin-4-yl)methyl)pyrrolo[2,1-f][1,2,4]triazin-4(3H)-one] the IC50 was > 10 µM.

`O=C(c1ccc(-c2cnc3ccccc3c2)cc1)N1CCC(O)(Cn2cnn3cccc3c2=O)CC1` [Compound I-42, 3-((4-hydroxy-1-(4-(quinolin-3-yl)benzoyl)piperidin-4-yl)methyl)pyrrolo[2,1-f][1,2,4]triazin-4(3H)-one] showed an IC50 of 1 to 10 µM.

`O=C(C1CCN(c2nc3ccccc3o2)CC1)N1CCC(O)(Cn2cnn3cccc3c2=O)CC1` [Compound I-33, 3-((1-(1-(benzo[d]oxazol-2-yl)piperidine-4-carbonyl)-4-hydroxypiperidin-4-yl)methyl)pyrrolo[2,1-f][1,2,4]triazin-4(3H)-one] was tested, and the IC50 was > 10 µM.

Compound `O=C(c1ccc(-c2ccc(C(=O)N3CCC(O)(Cn4cnn5cccc5c4=O)CC3)cc2)cc1)N1CCCC1` [Compound I-39, 3-((4-hydroxy-1-(4′-(pyrrolidine-1-carbonyl)-[1,1′-biphenyl]-4-carbonyl)piperidin-4-yl)methyl)pyrrolo[2,1-f][1,2,4]triazin-4(3H)-one] has an IC50 of 1 to 10 µM.

With `Cc1nnnn1Cc1ccc(C(=O)N2CCC(O)(Cn3cnn4cccc4c3=O)CC2)cc1` [Compound I-66, 3-((4-hydroxy-1-(4-((5-methyl-1H-tetrazol-1-yl)methyl)benzoyl)piperidin-4-yl)methyl)pyrrolo[2,1-f][1,2,4]triazin-4(3H)-one] the IC50 was > 10 µM.

For `O=C(c1ccc(-c2ccc(C(=O)N3CCC(O)(Cn4cnn5cccc5c4=O)CC3)c(Cl)c2)cc1)N1CCCCC1` [Compound I-79, 3-((1-(3-chloro-4′-(piperidine-1-carbonyl)-[1,1′-biphenyl]-4-carbonyl)-4-hydroxypiperidin-4-yl)methyl)pyrrolo[2,1-f][1,2,4]triazin-4(3H)-one], the IC50 was 1 to 10 µM.

In the case of `O=C(NCc1ccc(Cl)cc1)Nc1cc2c(=O)n(CC3(O)CCN(C(=O)C4CC4)CC3)cnn2c1` [Compound I-91, 1-(4-chlorobenzyl)-3-(3-((1-(cyclopropanecarbonyl)-4-hydroxypiperidin-4-yl)methyl)-4-oxo-3,4-dihydropyrrolo[2,1-f][1,2,4]triazin-6-yl)urea], the IC50 is reported as > 10 µM.

With `O=C(c1cccc(-c2cccc(Cl)c2)c1)N1CCC(O)(Cn2cnn3cccc3c2=O)CC1` [Compound I-13, 3-((1-(3′-chloro-[1,1′-biphenyl]-3-carbonyl)-4-hydroxypiperidin-4-yl)methyl)pyrrolo[2,1-f][1,2,4]triazin-4(3H)-one] the IC50 was 1 to 10 µM.

In the case of `CN(C)C(=O)c1ccc(-c2ccc(C(=O)N3CCC(O)(Cn4cnn5cccc5c4=O)CC3)cc2)cc1` [Compound I-38, 4′-(4-hydroxy-4-((4-oxopyrrolo[2,1-f][1,2,4]triazin-3(4H)-yl)methyl)piperidine-1-carbonyl)-N,N-dimethyl-[1,1′-biphenyl]-4-carboxamide], the IC50 is reported as 1 to 10 µM.

Work on `CC(C)(C)C(Cc1ccccc1)C(=O)N1CCC(O)(Cn2cnn3cccc3c2=O)CC1` (centres unmarked) [Compound I-53, 3-((1-(2-benzyl-3,3-dimethylbutanoyl)-4-hydroxypiperidin-4-yl)methyl)pyrrolo[2,1-f][1,2,4]triazin-4(3H)-one] yielded an IC50 of 1 to 10 µM.

In the case of `Cn1cnc2cc(-c3ccc(C(=O)N4CCC(O)(Cn5cnn6cccc6c5=O)CC4)cc3)ccc21` [Compound I-46, 3-((4-hydroxy-1-(4-(1-methyl-1H-benzo[d]imidazol-5-yl)benzoyl)piperidin-4-yl)methyl)pyrrolo[2,1-f][1,2,4]triazin-4(3H)-one], the IC50 is reported as > 10 µM.

In the case of `Cc1ccc(-c2cccc(C(=O)N3CCC(O)(Cn4cnn5cccc5c4=O)CC3)c2)cc1` [Compound I-7, 3-((4-hydroxy-1-(4′-methyl-[1,1′-biphenyl]-3-carbonyl)piperidin-4-yl)methyl)pyrrolo[2,1-f][1,2,4]triazin-4(3H)-one], the IC50 is reported as 1 to 10 µM.

“3-((4-hydroxy-1-(3-phenylbutanoyl)piperidin-4-yl)methyl)-6-methylpyrrolo[2,1-f][1,2,4]triazin-4(3H)-one [Compound I-83]” gave an IC50 of 1 to 10 µM.

With `O=C(c1ccc(Cc2cccs2)cc1)N1CCC(O)(Cn2cnn3cccc3c2=O)CC1` [Compound I-70, 3-((4-hydroxy-1-(4-(thiophen-2-ylmethyl)benzoyl)piperidin-4-yl)methyl)pyrrolo[2,1-f][1,2,4]triazin-4(3H)-one] the IC50 was 1 to 10 µM.

`O=C(c1ccc(-c2cscn2)cc1)N1CCC(O)(Cn2cnn3cccc3c2=O)CC1` [Compound I-59, 3-((4-hydroxy-1-(4-(thiazol-4-yl)benzoyl)piperidin-4-yl)methyl)pyrrolo[2,1-f][1,2,4]triazin-4(3H)-one] was tested, and the IC50 was > 10 µM.

`Cc1cc(-c2cccc(C(=O)N3CCC(O)(Cn4cnn5cccc5c4=O)CC3)c2)ccc1F` [Compound I-9, 3-((1-(4′-fluoro-3′-methyl-[1,1′-biphenyl]-3-carbonyl)-4-hydroxypiperidin-4-yl)methyl)pyrrolo[2,1-f][1,2,4]triazin-4(3H)-one] was tested, and the IC50 was > 10 µM.

For `CCN(c1ccccc1)c1ccc(C(=O)N2CCC(O)(Cn3cnn4cccc4c3=O)CC2)cc1` [Compound I-72, 3-((1-(4-(ethyl(phenyl)amino)benzoyl)-4-hydroxypiperidin-4-yl)methyl)pyrrolo[2,1-f][1,2,4]triazin-4(3H)-one], the IC50 was 1 to 10 µM.

Compound `Cc1ccc2c(=O)n(CC3(O)CCN(C(=O)CC(C)c4ccccc4)CC3)cnn12` (centres unmarked) [Compound I-76, 3-((4-hydroxy-1-(3-phenylbutanoyl)piperidin-4-yl)methyl)-7-methylpyrrolo[2,1-f][1,2,4]triazin-4(3H)-one] has an IC50 of 0.2 to 1 µM.

For `O=C(Nc1ccc2c(c1)CCC2)Nc1cc2c(=O)n(CC3(O)CCN(C(=O)C4CC4)CC3)cnn2c1` [Compound I-90, 1-(3-((1-(cyclopropanecarbonyl)-4-hydroxypiperidin-4-yl)methyl)-4-oxo-3,4-dihydropyrrolo[2,1-f][1,2,4]triazin-6-yl)-3-(2,3-dihydro-1H-inden-5-yl)urea], the IC50 was > 10 µM.

`Cc1ccc(CNC(=O)Nc2cc3c(=O)n(CC4(O)CCN(C(=O)C5CC5)CC4)cnn3c2)cc1` [Compound I-92, 1-(3-((1-(cyclopropanecarbonyl)-4-hydroxypiperidin-4-yl)methyl)-4-oxo-3,4-dihydropyrrolo[2,1-f][1,2,4]triazin-6-yl)-3-(4-methylbenzyl)urea] was tested, and the IC50 was > 10 µM.

With `Cc1cc(C(F)(F)F)nn1Cc1ccc(C(=O)N2CCC(O)(Cn3cnn4cccc4c3=O)CC2)cc1` [Compound I-67, 3-((4-hydroxy-1-(4-((5-methyl-3-(trifluoromethyl)-1H-pyrazol-1-yl)methyl)benzoyl)piperidin-4-yl)methyl)pyrrolo[2,1-f][1,2,4]triazin-4(3H)-one] the IC50 was 1 to 10 µM.

`Cc1cc(C)n(Cc2ccc(C(=O)N3CCC(O)(Cn4cnn5cccc5c4=O)CC3)cc2)n1` [Compound I-69, 3-((1-(4-((3,5-dimethyl-1H-pyrazol-1-yl)methyl)benzoyl)-4-hydroxypiperidin-4-yl)methyl)pyrrolo[2,1-f][1,2,4]triazin-4(3H)-one] was tested, and the IC50 was 1 to 10 µM.

For `O=C(CC1CCc2ccccc2C1)N1CCC(O)(Cn2cnn3cccc3c2=O)CC1` (centres unmarked) [Compound I-58, 3-((4-hydroxy-1-(2-(1,2,3,4-tetrahydronaphthalen-2-yl)acetyl)piperidin-4-yl)methyl)pyrrolo[2,1-f][1,2,4]triazin-4(3H)-one], the IC50 was > 10 µM.

With `Cc1ccc(C(=O)Nc2cc3c(=O)n(CC4(O)CCN(C(=O)C5CC5)CC4)cnn3c2)cc1Cl` [Compound I-108, 3-chloro-N-(3-((1-(cyclopropanecarbonyl)-4-hydroxypiperidin-4-yl)methyl)-4-oxo-3,4-dihydropyrrolo[2,1-f][1,2,4]triazin-6-yl)-4-methylbenzamide] the IC50 was > 10 µM.

With `Cc1ccc(NC(=O)Nc2cc3c(=O)n(CC4(O)CCN(C(=O)C5CC5)CC4)cnn3c2)c(C)c1` [Compound I-99, 1-(3-((1-(cyclopropanecarbonyl)-4-hydroxypiperidin-4-yl)methyl)-4-oxo-3,4-dihydropyrrolo[2,1-f][1,2,4]triazin-6-yl)-3-(2,4-dimethylphenyl)urea] the IC50 was > 10 µM.

With `O=C(c1ccccc1)N1CCC(O)(Cn2cnn3c(-c4ccccc4)ncc3c2=O)CC1` [Compound I-115, 3-((1-benzoyl-4-hydroxypiperidin-4-yl)methyl)-7-phenylimidazo[5,1-f][1,2,4]triazin-4(3H)-one] the IC50 was 1 to 10 µM.

`Cn1c(-c2cccc(C(=O)N3CCC(O)(Cn4cnn5cccc5c4=O)CC3)c2)cc2ccccc21` [Compound I-25, 3-((4-hydroxy-1-(3-(1-methyl-1H-indol-2-yl)benzoyl)piperidin-4-yl)methyl)pyrrolo[2,1-f][1,2,4]triazin-4(3H)-one] showed an IC50 of 0.2 to 1 µM.

Compound `O=C(c1cccc(-c2ccc(Cl)cc2)c1)N1CCC(O)(Cn2cnn3cccc3c2=O)CC1` [Compound I-12, 3-((1-(4′-chloro-[1,1′-biphenyl]-3-carbonyl)-4-hydroxypiperidin-4-yl)methyl)pyrrolo[2,1-f][1,2,4]triazin-4(3H)-one] has an IC50 of 1 to 10 µM.

In the case of `Cc1ccc(C(=O)Nc2cc3c(=O)n(CC4(O)CCN(C(=O)C5CC5)CC4)cnn3c2)cc1C` [Compound I-107, N-(3-((1-(cyclopropanecarbonyl)-4-hydroxypiperidin-4-yl)methyl)-4-oxo-3,4-dihydropyrrolo[2,1-f][1,2,4]triazin-6-yl)-3,4-dimethylbenzamide], the IC50 is reported as 1 to 10 µM.
